We go through nine compounds from patent US8642540B2 (Zealand Pharma A/S, priority 2008, dated 2014).

The subject of test [1] is primary rat adipocyte cultures. The format is cell-based. The conditions noted are these: for Stimulation of lipolysis EC50 / lipolysis potency relative to OXM: primary rat adipocyte cultures; for Stimulation of lipolysis EC50: 60 min at 37° C., glycerol formed. How it is done:
Adipocytes were isolated from epididymal fat dissected from normal young adult Sprague-Dawley rats. The fat lumps were minced, incubated and shaken (220 rpm) with collagenase (1 mg/ml) in Krebs-Ringer buffer containing 4% BSA (KRB-BSA) for 60 minutes at 37° C. The suspension was filtered through a nylon filter (160 μm pore size) and the filtrate centrifuged at 200×g for 3 min. The subjacent medium beneath the upper floating layer of adipocytes was removed with a Pasteur-pipette. The adipocytes were washed 3 times in KRB-BSA buffer by re-suspension and centrifugation. The adipocytes were re-suspended in KRB-BSA, mixed, incubated in and shaken with test compounds in 96-deep well plates (50,000 cells/well) in a total volume of 1 ml at 37° C. for 60 min. The plates were placed on ice for at least 10 min after incubation followed by centrifugation at 200×g for 3 min. 300 μl of the buffer beneath the adipocyte layer were collected in a 96-deep well plate. This process was repeated two more times and the 3 extracts collected from each culture pooled together.

The target of another test is T1, human Glucagon-R (Homo sapiens, UniProt P47871).
T1 construct: expressed in transfected cells
Put plainly: Glucagon receptor efficacy assay (cAMP in HEK293 cells). The format is cell-based. The conditions noted are these: HEK293 cells expressing human Glucagon-R, 15 min at 37° C., read-out: GLUR EC50. How it is done: (§1) The 5′-end primers additionally encoded a near Kozak consensus sequence to ensure efficient translation.
(§2) 48 hr after transfection cells were seeded for limited dilution cloning and selected with 1 mg/ml G418 in the culture medium.
(§3) On the day of analysis, growth medium was removed and the cells washed once with 200 μl Tyrode buffer. Cells were incubated in 100 μl Tyrode buffer containing increasing concentrations of test peptides, 100 μM IBMX, and 6 mM glucose for 15 min at 37° C. The reaction was stopped by addition of 25 μl 0.5 M HCl and incubated on ice for 60 min. The cAMP content was estimated using the FlashPlate® cAMP kit from Perkin-Elmer.

The target of the next test is T2, human GLP-1-R (Homo sapiens, UniProt P43220).
T2 construct: expressed in transfected cells
Put plainly: GLP-1 receptor efficacy assay (cAMP in HEK293 cells). The format is cell-based. The conditions noted are these: HEK293 cells expressing human GLP-1-R, 15 min at 37° C. The procedure:
as §1, §2, §3

Another test relates to diet induced obese mice. Kind of test: 28 day treatment of diet induced obese (DIO) mice, body weight gain. The conditions noted are these: C57Bl/6 male mice on high fat diet, 500 nmol/kg b.i.d. s.c., 28 days. The format is in vivo, mouse. The procedure: Effects of 28 Day Treatment of Diet Induced Obese (DIO) Mice with ZP2495 (SEQ ID NO: 5) on Body Weight Gain Four weeks before drug treatments, C57Bl/6 male mice (7 weeks) (N=10-12 animals in each group) were put on high fat diet (HFD) and their day-night cycle reversed with lights On/Off at 2000/0800 hour. Experimental animals were conditioned to treatment by daily injections (s.c.) of 0.1 ml vehicle and acclimatized to handling by weighing them twice a week one week before start of drug administrations. The day before start of experiment, mice were stratified into groups with similar body weight (BW) and the next day groups of stratified mice were treated (b.i.d.; s.c.) with ZP2495 (SEQ ID NO: 5) (500 nmol/kg) or vehicle. A non-obese control group maintained on regular chow was treated with vehicle in the same treatment regime as the DIO groups. Body weights were recorded daily and used to administer the body weight-corrected doses of peptide throughout the study. Animals were fasted overnight before sacrifice. […] Body weight gains throughout the treatment period were calculated for each animal by subtracting its weight at the initiation of treatment.
The effects of treatment on body weight gain were assessed by 2-way ANOVA with repeated measures and Bonferoni post-hoc analyses were using with GraphPad Prism version 4. […]

Where two headings read alike, the source gives them in different places. Non-standard residues stand in square brackets, D forms with d. Residues, ends and D or L forms follow the SMILES beside them.

T2 sequence (P43220 24-463): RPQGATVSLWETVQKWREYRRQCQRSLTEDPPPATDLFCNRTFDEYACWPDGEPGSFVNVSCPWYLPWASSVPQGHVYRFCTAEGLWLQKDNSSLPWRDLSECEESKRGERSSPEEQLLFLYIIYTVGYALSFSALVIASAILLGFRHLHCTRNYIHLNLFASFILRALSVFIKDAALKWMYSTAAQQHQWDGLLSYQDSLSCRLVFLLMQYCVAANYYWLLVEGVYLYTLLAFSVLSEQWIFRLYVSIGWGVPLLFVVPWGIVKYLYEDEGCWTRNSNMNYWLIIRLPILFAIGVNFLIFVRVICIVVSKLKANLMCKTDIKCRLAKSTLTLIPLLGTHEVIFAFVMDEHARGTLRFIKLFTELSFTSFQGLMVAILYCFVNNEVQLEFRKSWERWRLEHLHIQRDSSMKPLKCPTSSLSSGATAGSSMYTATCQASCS
T1 sequence (P47871 26-477): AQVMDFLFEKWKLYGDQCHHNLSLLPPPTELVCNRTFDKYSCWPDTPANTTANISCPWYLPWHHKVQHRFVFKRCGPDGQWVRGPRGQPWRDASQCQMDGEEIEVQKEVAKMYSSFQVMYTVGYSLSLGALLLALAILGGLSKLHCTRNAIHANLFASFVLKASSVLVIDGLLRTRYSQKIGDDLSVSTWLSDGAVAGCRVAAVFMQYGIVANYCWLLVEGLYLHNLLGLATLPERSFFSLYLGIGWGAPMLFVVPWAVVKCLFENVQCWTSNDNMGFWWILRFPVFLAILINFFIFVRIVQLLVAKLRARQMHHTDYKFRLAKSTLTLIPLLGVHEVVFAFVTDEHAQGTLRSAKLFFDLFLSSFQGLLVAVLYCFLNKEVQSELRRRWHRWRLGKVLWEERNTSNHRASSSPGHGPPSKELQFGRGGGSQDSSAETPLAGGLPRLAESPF

`CC(C)C[C@H](NC(=O)[C@H](Cc1c[nH]c2ccccc12)NC(=O)[C@H](C)NC(=O)[C@@H](NC(=O)[C@H](Cc1ccccc1)NC(=O)[C@H](CC(=O)O)NC(=O)[C@H](CC(=O)O)NC(=O)[C@H](C)NC(=O)[C@H](CCCNC(=N)N)NC(=O)[C@H](C)NC(=O)[C@H](CCCNC(=N)N)NC(=O)[C@H](CC(=O)O)NC(=O)[C@H](CC(C)C)NC(=O)[C@H](Cc1ccc(O)cc1)NC(=O)[C@H](CCCCN)NC(=O)[C@H](CO)NC(=O)[C@H](Cc1ccc(O)cc1)NC(=O)[C@H](CC(=O)O)NC(=O)[C@H](CO)NC(=O)[C@@H](NC(=O)[C@H](Cc1ccccc1)NC(=O)[C@@H](NC(=O)CNC(=O)[C@H](CCC(N)=O)NC(=O)[C@@H](CO)NC(=O)[C@@H](N)Cc1c[nH]cn1)[C@@H](C)O)[C@@H](C)O)C(C)C)C(=O)N[C@@H](CCCCN)C(=O)N[C@@H](CO)C(=O)N[C@H](C(N)=O)[C@@H](C)O` [ZP2654] (H-H[dS]QGTFTSDYSKYLDRARADDFVAWLKST-NH2): the EC50 in test [1] came to 326 nM; on human Glucagon-R it was 0.5 nM; on human GLP-1-R, 0.8 nM.

With Exendin-4 [reference compound], the “Stimulation of lipolysis EC50” value in test [1] is on record as “No effect”; in test [1] (listed as exendin-4), “no effect”.

Take “H-HSQGTFTSDYSKYLDRARADDFVAWLERA-NH2 [ZP2650]”: the 50% effective concentration (EC50) in test [1] stood at 15 nM; at human GLP-1-R, 0.8 nM.

Take “H-HSQGTFTSDYSKYLDRARADDFVAWLKEA-NH2 [ZP2635]”: the EC50 came out at 93 nM in test [1], 0.2 nM at human Glucagon-R and 0.2 nM on human GLP-1-R.

Turning to “H-HSQGTFTSDYSKYLDRARADDFVAWLKSA-NH2 [ZP2634]”, the figures for the EC50 (in test [1]; on human Glucagon-R; on human GLP-1-R) were 127 nM, 0.5 nM and 0.2 nM, respectively. For the same compound, the “lipolysis potency relative to OXM” value in test [1] is on record as “equipotent with OXM”.

In the case of “H-HSQGTFTSDYSKYLDRARADDFVAWLKST-NH2 [ZP2495]”, the “body weight gain versus vehicle group” value with diet induced obese mice (2-way ANOVA, p<0.05) is given as “statistically significantly less than observed in the vehicle group”. Further, the body weight gain entry in the test with diet induced obese mice (compared with chow-fed controls) is given as “decreased body weight gain to a level similar to that observed with chow feeding”. Besides, in test [1], the EC50 stood at 137 nM and the “lipolysis potency relative to OXM” value was “equipotent with OXM”.

As to “H-HSQGTFTSDYSKYLDRARADDFVEWLKST-NH2 [ZP2649]”, the EC50 in test [1] was determined as 57 nM; on human GLP-1-R, 0.1 nM.

With “H-HSQGTFTSDYSKYLDRARAEDFVAWLKST-NH2 [ZP2637]”, the 50% effective concentration (EC50) in test [1] was 42 nM; at human Glucagon-R, 0.2 nM; on human GLP-1-R, 0.1 nM.

On to “H-HSQGTFTSDYSKYLDRARAHDFVAWLKST-NH2 [ZP2648]”, for which the 50% effective concentration (EC50) in test [1] is 26 nM; at human Glucagon-R it was 0.2 nM; on human GLP-1-R, 0.1 nM.

Broadly, the EC50 is the concentration giving half of the maximal effect.
